Data: patent US9938261B2, “Heterocyclic compounds and methods of use thereof” (AMBIT BIOSCIENCES CORPORATION, priority 2011, dated 2018)
Like-named read-outs stand apart in the source and are kept apart here.

How the values were obtained:
[1] = target: kinase panel containing either 386 or 392 distinct kinases; assay: Kinase selectivity score S10 from competition binding panel
Summary of the method: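 S10 is the number of kinases with percent-of-control under 10, divided by all distinct wild-type kinases tested, from a single 10 μM concentration. Binding measured by qPCR of kinase recovered from ligand-coated beads after 1 h equilibrium at room temperature; kinases were phage fusions or DNA-tagged HEK-293 products.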

PDGFRβ = target: T1, PDGFRβ (Homo sapiens, UniProt P09619); assay: Competition binding assay, PDGFRβ Kd
T1 construct: made in house
Summary of the method: (§1)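 Kinases as T7-phage fusions or HEK-293-expressed DNA-tagged constructs competed against immobilized biotinylated ligand on streptavidin beads, 1 h at room temperature in binding buffer. Bound kinase eluted and quantified by qPCR; Kd from eleven-point threefold dilution series.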

KIT = target: T2, KIT (Homo sapiens, UniProt P10721); assay: Competition binding assay, KIT Kd
T2 construct: made in house
Summary of the method: as §1

CSF1R = CSF1R (Homo sapiens, UniProt P07333); assay: Competition binding assay, CSF1R Kd; set-up: made in house
Summary of the method: as §1

FLT3 = target: T3, FLT3 (Homo sapiens, UniProt P36888); assay: Competition binding assay, FLT3 Kd
T3 construct: made in house
T3 sequence (P36888 27-993): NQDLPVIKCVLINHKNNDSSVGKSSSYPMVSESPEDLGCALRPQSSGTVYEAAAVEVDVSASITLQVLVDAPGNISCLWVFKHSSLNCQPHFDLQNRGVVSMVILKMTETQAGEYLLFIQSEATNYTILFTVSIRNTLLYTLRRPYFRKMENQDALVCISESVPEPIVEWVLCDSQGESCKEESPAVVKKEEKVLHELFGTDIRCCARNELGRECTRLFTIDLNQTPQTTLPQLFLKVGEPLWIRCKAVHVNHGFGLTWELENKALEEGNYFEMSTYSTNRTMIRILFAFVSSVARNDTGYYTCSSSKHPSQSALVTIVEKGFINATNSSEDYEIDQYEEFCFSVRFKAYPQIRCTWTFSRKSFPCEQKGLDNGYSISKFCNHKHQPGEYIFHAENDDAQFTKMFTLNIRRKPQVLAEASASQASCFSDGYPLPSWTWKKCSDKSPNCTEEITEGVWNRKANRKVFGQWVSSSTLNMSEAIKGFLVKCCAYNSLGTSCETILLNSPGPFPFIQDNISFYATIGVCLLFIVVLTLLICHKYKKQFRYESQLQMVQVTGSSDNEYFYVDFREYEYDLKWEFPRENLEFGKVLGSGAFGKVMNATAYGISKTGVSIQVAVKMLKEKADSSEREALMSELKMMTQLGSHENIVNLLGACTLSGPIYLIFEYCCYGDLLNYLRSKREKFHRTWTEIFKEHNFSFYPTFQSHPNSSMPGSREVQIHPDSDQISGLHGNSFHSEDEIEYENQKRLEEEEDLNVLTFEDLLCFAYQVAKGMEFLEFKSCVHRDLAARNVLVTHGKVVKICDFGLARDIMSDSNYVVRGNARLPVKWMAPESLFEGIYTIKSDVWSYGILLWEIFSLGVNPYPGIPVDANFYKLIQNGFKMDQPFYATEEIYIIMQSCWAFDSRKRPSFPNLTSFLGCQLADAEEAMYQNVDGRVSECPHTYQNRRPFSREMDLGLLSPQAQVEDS
Summary of the method: as §1

M-NFS-60 cells = assay: M-NFS-60 cell proliferation assay (Alamar Blue); format: cell-based, mouse; details: Mus musculus, read-out: CSF1R M-NFS-60 CTB:IC50
Summary of the method: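 Alamar Blue reduction (3 h; 560/590 nm) measured viability after 72 h, 37 °C treatment with nine half-log compound concentrations at 0.5% DMSO. Cells: M-CSF-dependent (20 ng/mL) murine M-NFS-60 in RPMI plus 10% FBS. IC50s, averaged from duplicates, reflect half-maximal inhibition of proliferation relative to control.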

[2] = compounds at 10 μM, 386 or 392 distinct kinases
[3] = 72 hours incubation, M-CSF 20 ng/mL
[4] = 10 μM, panel of 386 or 392 distinct kinases

T2 sequence (P10721 26-976): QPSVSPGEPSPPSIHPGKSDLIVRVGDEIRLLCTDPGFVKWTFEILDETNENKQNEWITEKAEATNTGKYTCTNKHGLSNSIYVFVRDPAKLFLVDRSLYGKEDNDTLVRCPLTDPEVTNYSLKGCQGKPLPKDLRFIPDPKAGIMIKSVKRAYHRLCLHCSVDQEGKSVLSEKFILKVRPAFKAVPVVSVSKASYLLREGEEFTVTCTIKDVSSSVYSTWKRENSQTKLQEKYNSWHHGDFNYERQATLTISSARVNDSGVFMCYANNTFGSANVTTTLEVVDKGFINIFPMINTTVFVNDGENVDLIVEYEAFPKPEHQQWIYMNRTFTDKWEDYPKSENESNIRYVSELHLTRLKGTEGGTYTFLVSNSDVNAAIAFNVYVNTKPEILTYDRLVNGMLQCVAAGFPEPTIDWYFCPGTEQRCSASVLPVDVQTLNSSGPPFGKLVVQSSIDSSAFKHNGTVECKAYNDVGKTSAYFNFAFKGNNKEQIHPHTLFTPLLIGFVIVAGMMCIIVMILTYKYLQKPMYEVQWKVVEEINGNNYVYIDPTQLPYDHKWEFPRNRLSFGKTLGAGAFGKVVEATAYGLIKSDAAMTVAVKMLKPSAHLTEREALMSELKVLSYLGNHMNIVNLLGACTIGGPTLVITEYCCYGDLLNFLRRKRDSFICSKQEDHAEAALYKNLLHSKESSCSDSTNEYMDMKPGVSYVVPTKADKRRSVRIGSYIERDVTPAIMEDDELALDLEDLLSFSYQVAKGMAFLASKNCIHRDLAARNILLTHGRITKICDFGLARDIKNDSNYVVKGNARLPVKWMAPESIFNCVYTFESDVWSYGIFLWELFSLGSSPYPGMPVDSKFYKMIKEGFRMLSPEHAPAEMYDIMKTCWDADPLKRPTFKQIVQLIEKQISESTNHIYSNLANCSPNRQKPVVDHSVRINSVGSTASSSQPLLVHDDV
T1 sequence (P09619 33-1106): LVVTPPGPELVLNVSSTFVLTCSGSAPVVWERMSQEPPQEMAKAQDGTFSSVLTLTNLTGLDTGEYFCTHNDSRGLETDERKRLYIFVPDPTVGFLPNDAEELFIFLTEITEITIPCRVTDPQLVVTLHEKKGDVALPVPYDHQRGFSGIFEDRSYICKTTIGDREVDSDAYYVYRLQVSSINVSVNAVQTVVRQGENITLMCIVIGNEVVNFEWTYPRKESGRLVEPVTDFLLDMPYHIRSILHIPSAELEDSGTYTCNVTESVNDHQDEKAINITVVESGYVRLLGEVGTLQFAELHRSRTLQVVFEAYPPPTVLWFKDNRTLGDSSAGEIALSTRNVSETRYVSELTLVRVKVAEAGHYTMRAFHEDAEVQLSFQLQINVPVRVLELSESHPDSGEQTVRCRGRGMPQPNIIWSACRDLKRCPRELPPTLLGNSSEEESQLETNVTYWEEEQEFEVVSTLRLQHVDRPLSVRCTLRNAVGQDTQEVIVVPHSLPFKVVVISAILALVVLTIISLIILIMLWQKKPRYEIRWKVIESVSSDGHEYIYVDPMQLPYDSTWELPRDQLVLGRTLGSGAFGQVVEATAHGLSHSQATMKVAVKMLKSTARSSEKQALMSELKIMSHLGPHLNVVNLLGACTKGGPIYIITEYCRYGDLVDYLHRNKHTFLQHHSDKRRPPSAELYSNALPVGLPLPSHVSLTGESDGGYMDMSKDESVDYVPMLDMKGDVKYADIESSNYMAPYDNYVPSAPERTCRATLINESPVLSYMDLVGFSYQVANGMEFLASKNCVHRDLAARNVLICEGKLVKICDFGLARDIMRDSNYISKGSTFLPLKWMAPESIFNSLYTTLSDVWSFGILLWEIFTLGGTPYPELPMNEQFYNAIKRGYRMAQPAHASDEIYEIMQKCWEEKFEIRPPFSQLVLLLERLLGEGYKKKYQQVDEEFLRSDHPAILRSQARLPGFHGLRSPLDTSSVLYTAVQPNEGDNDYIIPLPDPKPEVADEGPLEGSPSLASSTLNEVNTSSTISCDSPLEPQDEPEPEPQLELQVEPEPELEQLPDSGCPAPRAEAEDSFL
CSF1R, sequence (P07333 20-972): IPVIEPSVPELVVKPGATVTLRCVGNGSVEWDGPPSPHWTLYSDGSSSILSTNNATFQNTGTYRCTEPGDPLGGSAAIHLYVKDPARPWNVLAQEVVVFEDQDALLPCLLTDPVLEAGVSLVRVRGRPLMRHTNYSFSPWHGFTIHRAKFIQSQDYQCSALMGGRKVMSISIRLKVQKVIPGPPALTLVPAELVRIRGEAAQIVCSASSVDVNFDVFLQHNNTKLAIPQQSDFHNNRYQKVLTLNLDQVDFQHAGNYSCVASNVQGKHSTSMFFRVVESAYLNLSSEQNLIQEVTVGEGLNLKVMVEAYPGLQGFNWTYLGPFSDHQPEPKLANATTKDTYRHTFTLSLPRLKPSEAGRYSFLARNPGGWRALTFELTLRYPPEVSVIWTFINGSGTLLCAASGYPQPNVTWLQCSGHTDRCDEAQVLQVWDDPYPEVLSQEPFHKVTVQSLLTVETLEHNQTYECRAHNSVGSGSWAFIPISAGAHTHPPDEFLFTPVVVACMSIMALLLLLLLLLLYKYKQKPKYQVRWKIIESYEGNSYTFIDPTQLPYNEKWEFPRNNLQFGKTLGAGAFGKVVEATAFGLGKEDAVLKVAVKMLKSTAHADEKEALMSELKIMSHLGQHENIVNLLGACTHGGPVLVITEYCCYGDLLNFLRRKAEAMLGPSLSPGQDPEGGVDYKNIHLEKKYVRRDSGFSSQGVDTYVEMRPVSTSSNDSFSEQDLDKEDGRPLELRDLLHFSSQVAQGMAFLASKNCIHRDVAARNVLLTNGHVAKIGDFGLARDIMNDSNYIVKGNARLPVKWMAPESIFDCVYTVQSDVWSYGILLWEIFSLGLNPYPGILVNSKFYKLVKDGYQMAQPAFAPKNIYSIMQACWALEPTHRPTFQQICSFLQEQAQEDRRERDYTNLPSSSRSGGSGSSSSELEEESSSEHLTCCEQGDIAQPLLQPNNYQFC

| Kinase specificity S(10) [1, 2] | Kd (PDGFRβ) | Kd (KIT) | Kd (CSF1R) | Kd (FLT3) | Kinase specificity S(10) [1, 4] | Kd (PDGFRβ; competition binding) | Kd (KIT; competition binding) | Kd (CSF1R; competition binding) | Kd (FLT3; competition binding) | Compound | IC50 (M-NFS-60 cells; [3]) | IC50 (M-NFS-60 cells; M-NFS-60 cell proliferation) |
| --- | --- | --- | --- | --- | --- | --- | --- | --- | --- | --- | --- | --- |
| A (A≤0.01) | 50 to 500 nM | 500 to 2000 nM | 5 to 20 nM | > 5000 nM |  |  |  |  |  | O[C@@H]1CCCC[C@H]1Nc1nc2ccc(Cn3cnc4cncnc43)cc2s1 [Example 48, (1R,2R)-2-((6-((9H-purin-9-yl)methyl)benzo[d]thiazol-2-yl)amino)cyclohexanol] | 50 to 400 nM |  |
| C (C>0.02) | ≤ 50 nM | ≤ 100 nM | 5 to 20 nM | ≤ 200 nM |  |  |  |  |  | O[C@@H]1CCCC[C@H]1Nc1nc2ccc(Cn3cnc4cc(Br)cnc43)cc2o1 [Example 61, (1R,2R)-2-((6-((6-bromo-3H-imidazo[4,5-b]pyridin-3-yl)methyl)benzo[d]oxazol-2-yl)amino)cyclohexanol] | ≤ 50 nM |  |
|  |  |  |  |  | B (0.01<B≤0.02) | 50 to 500 nM | 100 to 500 nM | 5 to 20 nM | 1000 to 5000 nM | O[C@@H]1CCCC[C@H]1Nc1nc2ccc(Cn3cnc4ccc(Br)cc43)cc2s1 [Example 107, (1R,2R)-2-((6-((6-bromo-1H-benzo[d]imidazol-1-yl)methyl)benzo[d]thiazol-2-yl)amino)cyclohexanol] |  | 50 to 400 nM |
| B (0.01<B≤0.02) | 50 to 500 nM | 100 to 500 nM | 5 to 20 nM | ≤ 200 nM |  |  |  |  |  | CS(=O)(=O)c1cnc2c(c1)ncn2Cc1ccc2nc(N[C@@H]3CCCC[C@H]3O)sc2c1 [Example 74, (1R,2R)-2-((6-((6-(methylsulfonyl)-3H-imidazo[4,5-b]pyridin-3-yl)methyl)benzo[d]thiazol-2-yl)amino)cyclohexanol] | 50 to 400 nM |  |
| C (C>0.02) | 50 to 500 nM | 100 to 500 nM | 5 to 20 nM | ≤ 200 nM |  |  |  |  |  | COc1cc2ncn(Cc3ccc4nc(N[C@@H]5CCCC[C@H]5O)oc4c3)c2cc1OC [Example 34, (1R,2R)-2-((6-((5,6-dimethoxy-1H-benzo[d]imidazol-1-yl)methyl)benzo[d]oxazol-2-yl)amino)cyclohexanol] | 50 to 400 nM |  |
| A (A≤0.01) | 500 to 2000 nM | 500 to 2000 nM | 5 to 20 nM | > 5000 nM |  |  |  |  |  | COc1ccn2c(Cc3ccc4nc(N[C@@H]5CCCC[C@H]5O)sc4c3)cnc2c1 [Example 44, (1R,2R)-2-((6-((7-methoxyimidazo[1,2-a]pyridin-3-yl)methyl)benzo[d]thiazol-2-yl)amino)cyclohexanol] | 50 to 400 nM |  |
| C (C>0.02) | ≤ 50 nM | ≤ 100 nM | 5 to 20 nM | 1000 to 5000 nM |  |  |  |  |  | OC1(CNc2nc3ccc(Cn4cnc5cccnc54)cc3s2)CCCCC1 [Example 75, 1-(((6-((3H-imidazo[4,5-b]pyridin-3-yl)methyl)benzo[d]thiazol-2-yl)amino)methyl)cyclohexanol] | 50 to 400 nM |  |
| A (A≤0.01) | > 2000 nM | 500 to 2000 nM | 5 to 20 nM | > 5000 nM |  |  |  |  |  | Cn1cc(-c2cn(Cc3ccc4nc(N[C@@H]5CCCC[C@H]5O)sc4c3)cn2)cn1 [Example 36, (1R,2R)-2-((6-((4-(1-methyl-1H-pyrazol-4-yl)-1H-imidazol-1-yl)methyl)benzo[d]thiazol-2-yl)amino)cyclohexanol] | 50 to 400 nM |  |
| B (0.01<B≤0.02) | ≤ 50 nM | ≤ 100 nM | ≤ 5 nM | 200 to 1000 nM |  |  |  |  |  | N#Cc1ccc2ncn(Cc3ccc4nc(N[C@@H]5CCCC[C@H]5O)sc4c3)c2n1 [Example 87, 3-((2-(((1R,2R)-2-hydroxycyclohexyl)amino)benzo[d]thiazol-6-yl)methyl)-3H-imidazo[4,5-b]pyridine-5-carbonitrile] | ≤ 50 nM |  |
|  |  |  |  |  | B (0.01<B≤0.02) | ≤ 50 nM | 100 to 500 nM | 5 to 20 nM | 1000 to 5000 nM | Fc1cnc2c(c1)ncn2Cc1ccc2nc(N[C@@H]3CCCC[C@@H]3Cl)sc2c1 [Example 219, N-((1R,2S)-2-chlorocyclohexyl)-6-((6-fluoro-3H-imidazo[4,5-b]pyridin-3-yl)methyl)benzo[d]thiazol-2-amine] |  | 400 to 1500 nM |
|  |  |  |  |  | A (A≤0.01) | 50 to 500 nM | 100 to 500 nM | 5 to 20 nM | 1000 to 5000 nM | CC(=NO)c1ccn2c(Cc3ccc4nc(N[C@@H]5CCCC[C@H]5O)sc4c3)cnc2c1 [Example 202, 1-(3-((2-(((1R,2R)-2-hydroxycyclohexyl)amino)benzo[d]thiazol-6-yl)methyl)imidazo[1,2-a]pyridin-7-yl)ethanone oxime] |  | 50 to 400 nM |
| A (A≤0.01) | > 2000 nM | 500 to 2000 nM | 20 to 50 nM | > 5000 nM |  |  |  |  |  | O[C@@H]1CCCC[C@H]1Nc1nc2ccc(Cc3cnc4ccccn34)cc2s1 [Example 38, (1R,2R)-2-((6-(imidazo[1,2-a]pyridin-3-ylmethyl)benzo[d]thiazol-2-yl)amino)cyclohexanol] | 400 to 1500 nM |  |
| B (0.01<B≤0.02) | 50 to 500 nM | ≤ 100 nM | 5 to 20 nM | 200 to 1000 nM |  |  |  |  |  | COc1cc2ncn(Cc3ccc4nc(N[C@@H]5CCCC[C@H]5O)sc4c3)c2cc1Br [Example 47, (1R,2R)-2-((6-((6-bromo-5-methoxy-1H-benzo[d]imidazol-1-yl)methyl)benzo[d]thiazol-2-yl)amino)cyclohexanol] | ≤ 50 nM |  |
| A (A≤0.01) | 50 to 500 nM | 500 to 2000 nM | 5 to 20 nM | > 5000 nM |  |  |  |  |  | OC[C@@H]1CCCC[C@H]1Nc1nc2ccc(Cn3cnc4cccnc43)cc2s1 [Example 66, ((1R,2R)-2-((6-((3H-imidazo[4,5-b]pyridin-3-yl)methyl)benzo[d]thiazol-2-yl)amino)cyclohexyl)methanol] | 400 to 1500 nM |  |
| A (A≤0.01) | ≤ 50 nM | 100 to 500 nM | 5 to 20 nM | 1000 to 5000 nM |  |  |  |  |  | CC(=O)c1cnc2c(c1)ncn2Cc1ccc2nc(N[C@@H]3CCCC[C@H]3O)sc2c1 [Example 73, 1-(3-((2-(((1R,2R)-2-hydroxycyclohexyl)amino)benzo[d]thiazol-6-yl)methyl)-3H-imidazo[4,5-b]pyridin-6-yl)ethanone] | 50 to 400 nM |  |
|  |  |  |  |  | A (A≤0.01) | 50 to 500 nM | 500 to 2000 nM | 5 to 20 nM | > 5000 nM | CC(=O)c1ccn2c(Cc3ccc4nc(N[C@@H]5CCCC[C@H]5O)sc4c3)cnc2c1 [Example 200, 1-(3-((2-(((1R,2R)-2-hydroxycyclohexyl)amino)benzo[d]thiazol-6-yl)methyl)imidazo[1,2-a]pyridin-7-yl)ethanone] |  | 50 to 400 nM |
|  |  |  |  |  | B (0.01<B≤0.02) | 50 to 500 nM | 100 to 500 nM | ≤ 5 nM | > 5000 nM | O[C@@H]1CCCC[C@H]1Nc1nc2ccc(Cc3cnc4cc(-n5ccnc5)ccn34)cc2s1 [Example 214, (1R,2R)-2-((6-((7-(1H-imidazol-1-yl)imidazo[1,2-a]pyridin-3-yl)methyl)benzo[d]thiazol-2-yl)amino)cyclohexanol] |  | 50 to 400 nM |
| B (0.01<B≤0.02) | ≤ 50 nM | ≤ 100 nM | 5 to 20 nM | 200 to 1000 nM |  |  |  |  |  | O[C@@H]1Cc2ccccc2[C@H]1Nc1nc2ccc(Cn3cnc4ccc(Br)nc43)cc2s1 [Example 80, (1R,2R)-1-((6-((5-bromo-3H-imidazo[4,5-b]pyridin-3-yl)methyl)benzo[d]thiazol-2-yl)amino)-2,3-dihydro-1H-inden-2-ol] | ≤ 50 nM |  |
